Test results as given in patent US20110039721A1, “METHOD FOR PREDICTION ABOUT CARCINOGENICITY OF SUBSTANCE IN RODENT” (Chemicals Evaluation and Research Institute, priority 2007, published 2011).
Counter-ions that a name gives are not always drawn.

Legend:
[1] = system: rodent; conditions: in vivo; cited from earlier work
[2] = system: liver; conditions: in vivo; cited from earlier work
[3] = system: mRNA expressed from the genes (A) to (D) in rat liver; assay: Behavior of genes (mRNA expression level, oligo-DNA microarray) in rat liver after 28-day oral administration; type: in vivo
In short: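 Liver mRNA levels were compared with matched vehicle groups, with a shift of at least 1.5-fold up or down deemed significant unless its direction disagreed with other carcinogens. Test substances were dosed orally by gavage daily for 28 days to 5-week-old male F344 rats, four per group.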

[4] = (C), Unigene Rn.120914, defined direction +, rat liver, oral once daily 28 days

CN(C)CCN(Cc1cccs1)c1ccccn1 [TS053, Methapyrilene HCl]
Carcinogenicity [1]: C+
Liver carcinogenicity [2]: Cr+

CC(N)=O [TS067, Acetamide]
Carcinogenicity [1]: C+
Behavior of gene caused by administration of chemical substance, Gene No. 4846 ([3]; (A), Unigene Rn.144554, defined direction +, rat liver, oral once daily 28 days): +
Behavior of gene caused by administration of chemical substance, Gene No. 4218 ([3]; (A), Unigene Rn.167075, defined direction +, rat liver, oral once daily 28 days, significant = 1.5 times or more or 1/1.5 or less of control): −
Behavior of gene caused by administration of chemical substance, Gene No. 2026 ([3]; (A), Unigene Rn.167075, defined direction −, rat liver, oral once daily 28 days): +
Behavior of gene caused by administration of chemical substance, Gene No. 6182 ([3]; (A), Unigene Rn.5834, defined direction +, rat liver, oral once daily 28 days): −
Behavior of gene caused by administration of chemical substance, Gene No. 5600 ([3]; (A), Unigene Rn.9836, defined direction +, rat liver, oral once daily 28 days): −
Behavior of gene caused by administration of chemical substance, Gene No. 1494 ([3]; (B), Unigene Rn.1430, defined direction −, rat liver, oral once daily 28 days): −
Behavior of gene caused by administration of chemical substance, Gene No. 2045 ([3]; (B), Unigene Rn.19329, defined direction +, rat liver, oral once daily 28 days): −
Behavior of gene caused by administration of chemical substance, Gene No. 2203 ([3]; (B), Unigene Rn.21240, defined direction +, rat liver, oral once daily 28 days): −
Behavior of gene caused by administration of chemical substance, Gene No. 533 ([3]; (C), Unigene Rn.106184, defined direction +, rat liver, oral once daily 28 days): +
Behavior of gene caused by administration of chemical substance, Gene No. 725 ([3]; (C), Unigene Rn.108075, defined direction −, rat liver, oral once daily 28 days): −
Behavior of gene caused by administration of chemical substance, Gene No. 1163 ([3]; (C), Unigene Rn.11766, defined direction +, rat liver, oral once daily 28 days): −
Behavior of gene caused by administration of chemical substance, Gene No. 4973 ([3]; (C), Unigene Rn.118529, defined direction −, rat liver, oral once daily 28 days): −
Behavior of gene caused by administration of chemical substance, Gene No. 4095 ([3]; (C), Unigene Rn.119024, defined direction −, rat liver, oral once daily 28 days): −
Behavior of gene caused by administration of chemical substance, Gene No. 1334 [3, 4]: −
Behavior of gene caused by administration of chemical substance, Gene No. 6620 [3, 4]: −
Behavior of gene caused by administration of chemical substance, Gene No. 6303 ([3]; (C), Unigene Rn.123063, defined direction −, rat liver, oral once daily 28 days): +
Behavior of gene caused by administration of chemical substance, Gene No. 5878 ([3]; (C), Unigene Rn.143213, defined direction −, rat liver, oral once daily 28 days): −
Behavior of gene caused by administration of chemical substance, Gene No. 1131 ([3]; (C), Unigene Rn.144946, defined direction −, rat liver, oral once daily 28 days): −
Behavior of gene caused by administration of chemical substance, Gene No. 1562 ([3]; (C), Unigene Rn.14744, defined direction −, rat liver, oral once daily 28 days): −
Behavior of gene caused by administration of chemical substance, Gene No. 1741 ([3]; (C), Unigene Rn.1647, defined direction −, rat liver, oral once daily 28 days): −
Behavior of gene caused by administration of chemical substance, Gene No. 893 ([3]; (C), Unigene Rn.164817, defined direction +, rat liver, oral once daily 28 days): −
Behavior of gene caused by administration of chemical substance, Gene No. 6026 ([3]; (C), Unigene Rn.167685, defined direction −, rat liver, oral once daily 28 days): −
Behavior of gene caused by administration of chemical substance, Gene No. 154 ([3]; (C), Unigene Rn.185941, defined direction −, rat liver, oral once daily 28 days): +
Behavior of gene caused by administration of chemical substance, Gene No. 1993 ([3]; (C), Unigene Rn.18728, defined direction −, rat liver, oral once daily 28 days): −
Behavior of gene caused by administration of chemical substance, Gene No. 813 ([3]; (C), Unigene Rn.201760, defined direction +, rat liver, oral once daily 28 days): −
Behavior of gene caused by administration of chemical substance, Gene No. 2494 ([3]; (C), Unigene Rn.23969, defined direction +, rat liver, oral once daily 28 days): −
Behavior of gene caused by administration of chemical substance, Gene No. 2546 ([3]; (C), Unigene Rn.24561, defined direction −, rat liver, oral once daily 28 days): −
Behavior of gene caused by administration of chemical substance, Gene No. 3776 ([3]; (C), Unigene Rn.43232, defined direction −, rat liver, oral once daily 28 days): −
Behavior of gene caused by administration of chemical substance, Gene No. 3929 ([3]; (C), Unigene Rn.4620, defined direction +, rat liver, oral once daily 28 days): −
Behavior of gene caused by administration of chemical substance, Gene No. 1119 ([3]; (C), Unigene Rn.9757, defined direction +, rat liver, oral once daily 28 days): −
Behavior of gene caused by administration of chemical substance, Gene No. 6742 ([3]; (C), Unigene Rn.9779, defined direction +, rat liver, oral once daily 28 days): −
Behavior of gene caused by administration of chemical substance, Gene No. 5634 ([3]; (C), Unigene Rn.9862, defined direction −, rat liver, oral once daily 28 days): −
Behavior of gene caused by administration of chemical substance, Gene No. 5726 ([3]; (D), Unigene Rn.9939, defined direction −, rat liver, oral once daily 28 days): −

Cc1ccccc1[N+](=O)[O-] [TS087, o-Nitrotoluene]
Carcinogenicity [1]: C+
Behavior of gene caused by administration of chemical substance ([3]; Gene No. 154, Rn.185941, group (C)): −
Behavior of gene caused by administration of chemical substance ([3]; Gene No. 533, Rn.106184, group (C)): +
Behavior of gene caused by administration of chemical substance ([3]; Gene No. 725, Rn.108075, group (C)): +
Behavior of gene caused by administration of chemical substance ([3]; Gene No. 813, Rn.201760, group (C)): −
Behavior of gene caused by administration of chemical substance ([3]; Gene No. 893, Rn.164817, group (C)): −
Behavior of gene caused by administration of chemical substance ([3]; Gene No. 1119, Rn.9757, group (C)): −
Behavior of gene caused by administration of chemical substance ([3]; Gene No. 1131, Rn.144946, group (C)): −
Behavior of gene caused by administration of chemical substance ([3]; Gene No. 1163, Rn.11766, group (C)): −
Behavior of gene caused by administration of chemical substance ([3]; Gene No. 1334, Rn.120914, group (C)): −
Behavior of gene caused by administration of chemical substance ([3]; Gene No. 1494, Rn.1430, group (B)): +
Behavior of gene caused by administration of chemical substance ([3]; Gene No. 1562, Rn.14744, group (C)): −
Behavior of gene caused by administration of chemical substance ([3]; Gene No. 1741, Rn.1647, group (C)): −
Behavior of gene caused by administration of chemical substance ([3]; Gene No. 1993, Rn.18728, group (C)): −
Behavior of gene caused by administration of chemical substance ([3]; Gene No. 2026, Rn.167075, group (A)): +
Behavior of gene caused by administration of chemical substance ([3]; Gene No. 2045, Rn.19329, group (B)): −
Behavior of gene caused by administration of chemical substance ([3]; Gene No. 2203, Rn.21240, group (B)): −
Behavior of gene caused by administration of chemical substance ([3]; Gene No. 2494, Rn.23969, group (C)): −
Behavior of gene caused by administration of chemical substance ([3]; Gene No. 2546, Rn.24561, group (C)): −
Behavior of gene caused by administration of chemical substance ([3]; Gene No. 3776, Rn.43232, group (C)): −
Behavior of gene caused by administration of chemical substance ([3]; Gene No. 3929, Rn.4620, group (C)): −
Behavior of gene caused by administration of chemical substance ([3]; Gene No. 4095, Rn.119024, group (C)): −
Behavior of gene caused by administration of chemical substance ([3]; Gene No. 4218, Rn.167075, group (A)): +
Behavior of gene caused by administration of chemical substance ([3]; Gene No. 4846, Rn.144554, group (A)): +
Behavior of gene caused by administration of chemical substance ([3]; Gene No. 4973, Rn.118529, group (C)): +
Behavior of gene caused by administration of chemical substance ([3]; Gene No. 5600, Rn.9836, group (A)): +
Behavior of gene caused by administration of chemical substance ([3]; Gene No. 5634, Rn.9862, group (C)): −
Behavior of gene caused by administration of chemical substance ([3]; Gene No. 5726, Rn.9939, group (D)): −
Behavior of gene caused by administration of chemical substance ([3]; Gene No. 5878, Rn.143213, group (C)): −
Behavior of gene caused by administration of chemical substance ([3]; Gene No. 6026, Rn.167685, group (C)): −
Behavior of gene caused by administration of chemical substance ([3]; Gene No. 6182, Rn.5834, group (A)): +
Behavior of gene caused by administration of chemical substance ([3]; Gene No. 6303, Rn.123063, group (C)): +
Behavior of gene caused by administration of chemical substance ([3]; Gene No. 6620, Rn.120914, group (C)): −
Behavior of gene caused by administration of chemical substance ([3]; Gene No. 6742, Rn.9779, group (C)): −
